Read-outs that look alike come from different tables or passages of the source.
Assay: CARIV-A-001 Part B: cross-over IV infusion over 2 hours vs oral tablet 100 mg/kg in healthy subjects
Format: in vivo, human
Conditions: for Cmax / half-life / AUC(0-inf) / clearance / CL/F / bioavailability / AUC(0-t) / AUC: both sexes, human, plasma; for AUC: read-out: aucL, Median
Method: The levels of CGA in plasma and urine were analysed using a fully validated method, which included LC-MS/MS analysis. The PK data were analysed based on a non-compartmental model. A model-based approach was implemented for the characterization of the PK properties of the IV formulation in order to estimate the level of PK exposure after different doses administered with different duration of infusion. The model outcomes provided rationales for supporting decision-making through the dose escalation process. The PK parameters were determined using SAS (version 9.3), and modelling of the PK data was performed using NONMEM (version 7.3, ICON Solutions). PART A: Mono-Centre, Randomized, Successive Groups, Double-Blind, Placebo-Controlled Study in Healthy Male and Female Subjects
Part B was a randomized, double-blind, cross-over, two-sequence study. It was conducted in 12 healthy male and female subjects.
In two treatment periods, separated by a washout of at least two weeks, subjects received a single administration of the study medication in fasting conditions, either as an IV loading dose infusion of Rec0/0491 over 2 hours (started with 6 mg/kg/h then reduced to 4.0 mg/kg/h), or an oral tablet administration of Carbaglu® (100 mg/kg).
Blood samples for PK measurements were collected at 19 timepoints for the IV administration and 17 timepoints for the oral administration. This included a sample prior to intake of the study medication and the period ranging from 20 minutes to 72 hours following the initiation of the IV infusion, and the period ranging from 30 minutes to 72 hours following oral intake. Urine was also collected for PK measurements, at the following intervals relative to the time of administration of the study medication: 0-6, 6-12, 12-24, 24-36 and 36-48 hours.
The PK analysis of Carbaglu was conducted on all subjects showing quantifiable plasma levels using standard non-compartmental approach.

[1] = dose normalized section, Reference (IV data), in h
[2] = dose normalized section, Test (oral data), in h
[3] = dose normalized, Reference (IV data)
[4] = dose normalized, Test (oral data)

Q: Which results are given for `NC(=O)N[C@@H](CCC(=O)O)C(=O)O` [carglumic acid, N-carbamoyl-L-glutamic acid]?
A: Cmax (iv, 8 mg/kg, IV, 8 mg/kg, N 10, read-out: Cmax, Median): 8760 ng/mL; half-life (iv, 8 mg/kg, IV, 8 mg/kg, N 10, read-out: HL (Half-life), Mean (converted)): 30.6 h; half-life (iv, 8 mg/kg, IV, 8 mg/kg, N 10, read-out: HL (Half-life), Median (converted)): 28.8 h; AUC(0-inf) (iv, 12 mg/kg, IV, 12 mg/kg, N 2, read-out: AUCinf, Mean): 53800 ng·h/mL; AUC(0-inf) (iv, 12 mg/kg, IV, 12 mg/kg, N 2, read-out: AUCinf, Median): 53800 ng·h/mL; clearance (iv, 12 mg/kg, IV, 12 mg/kg, N 2, read-out: CL, Mean (converted)): 3.82 mL/min/kg; clearance (iv, 12 mg/kg, IV, 12 mg/kg, N 2, read-out: CL, Median (converted)): 3.82 mL/min/kg; Cmax (iv, 12 mg/kg, IV, 12 mg/kg, N 2, read-out: Cmax, Mean): 21400 ng/mL; Cmax (iv, 12 mg/kg, IV, 12 mg/kg, N 2, read-out: Cmax, Median): 21400 ng/mL; half-life (iv, 12 mg/kg, IV, 12 mg/kg, N 2, read-out: HL (Half-life), Mean (converted)): 34.9 h; half-life (iv, 12 mg/kg, IV, 12 mg/kg, N 2, read-out: HL (Half-life), Median (converted)): 34.9 h; clearance (iv, after IV administration, read-out: Total clearance (converted)): 5.17 mL/min/kg; AUC(0-inf) (oral, 100 mg/kg, OR, 100 mg/kg, N 12, read-out: AUCinf, Mean): 31400 ng·h/mL; AUC(0-inf) (oral, 100 mg/kg, OR, 100 mg/kg, N 12, read-out: AUCinf, Median): 30200 ng·h/mL; CL/F (oral, 100 mg/kg, OR, 100 mg/kg, N 12, read-out: CL/F, Mean (converted)): 55.6 mL/min/kg; CL/F (oral, 100 mg/kg, OR, 100 mg/kg, N 12, read-out: CL/F, Median (converted)): 55.2 mL/min/kg; Cmax (oral, 100 mg/kg, OR, 100 mg/kg, N 12, read-out: Cmax, Mean): 3280 ng/mL; Cmax (oral, 100 mg/kg, OR, 100 mg/kg, N 12, read-out: Cmax, Median): 2940 ng/mL; half-life (oral, 100 mg/kg, OR, 100 mg/kg, N 12, read-out: HL (Half-life), Mean (converted)): 24.6 h; half-life (oral, 100 mg/kg, OR, 100 mg/kg, N 12, read-out: HL (Half-life), Median (converted)): 23.7 h; bioavailability (oral, 100 mg/kg, 12 subjects, read-out: Absolute bioavailability, 90% confidence intervals): 8.3 to 11%; AUC(0-t) (oral, OR, 100 mg/kg, N 12): 29800 ng·h/mL; AUC (oral, OR, 100 mg/kg, N 12): 29100 ng·h/mL; bioavailability (po, 100 mg/kg, read-out: Oral bioavailability): ~10%; AUC(0-t) (IV, 8 mg/kg, N 10): 22900 ng·h/mL; AUC (IV, 8 mg/kg, N 10): 22000 ng·h/mL; AUC(0-t) (IV, 12 mg/kg, N 2): 52100 ng·h/mL; AUC (IV, 12 mg/kg, N 2): 52100 ng·h/mL; refHalf_life, Max [1]: 52.95; refHalf_life, Mean [1]: 31.351; refHalf_life, Median [1]: 28.81; refHalf_life, Min [1]: 22.85; testHalf life, Mean (dose normalized section, Test (oral data)): 24.6 h; testHalf_life, Max [2]: 35.31; testHalf_life, Median [2]: 23.71; testHalf_life, Min [2]: 17.56; refAUCinf, Max [3]: 5219; refAUCinf, Mean [3]: 3299.58; refAUCinf, Median [3]: 3162.4; refAUCinf, Min [3]: 2118.74; refAUClast, Max [3]: 5084.78; refAUClast, Mean [3]: 3105.22; refAUClast, Median [3]: 2840.05; refAUClast, Min [3]: 1964.13; refCL, Max [3]: 0.059; refCL, Mean [3]: 0.038; refCL, Median [3]: 0.04; refCL, Min [3]: 0.016; refCmax, Max [3]: 1958.33; refCmax, Mean [3]: 1195.1; refCmax, Median [3]: 1148.13; refCmax, Min [3]: 675; testAUCinf, Max [4]: 456.96; testAUCinf, Mean [4]: 314.25; testAUCinf, Min [4]: 218.52; testAUClast, Max [4]: 442.5; testAUClast, Mean [4]: 298.07; testAUClast, Min [4]: 200.31; testCL, Max [4]: 0.046; testCL, Mean [4]: 0.033; testCL, Min [4]: 0.022; testCmax, Max [4]: 56.2; testCmax, Mean [4]: 32.84; testCmax, Min [4]: 19.5; Absolute bioavailability F of the oral vs IV formulation, Mean (from dose normalized AUCinf, 12 subjects): 9.87%; Total clearance after oral administration corrected by the bioavailability value of F=9.87% (oral): 5.83 mL/min/kg

From patent publication US20220040129A1, “TREATMENT OF HYPERAMMONEMIA IN PATIENTS WITH RENAL INSUFFICIENCY” (RECORDATI S.p.A., priority 2019, published 2022)
